The text below walks through data of US20260347372A1, “SMALL MOLECULE INHIBITORS OF KRAS G12D MUTANT” (MERCK SHARP & DOHME LLC, priority 2023, published 2026).

One assay deals with T1, PANC08.13 cells (Homo sapiens, UniProt P01116, G12D).
T1 construct: p-ERK/total ERK AlphaSureFire read-out
The assay is described as follows: Cellular phospho-ERK assay, PANC08.13 cells (KRAS G12D). The following applies: 2 hours, read-out: PANCO 813 pERK IC50. Type of assay: cell-based. As to the method: Procedure for Cellular Phospho-ERK Assay in KRAS Wild Type and Mutant (G12D, G12V) Cell Lines
PANC08.13 cells (ATCC® CRL-2551™), containing homozygous KRAS-G12D activating mutation, were cultured in growth medium made of RPMI1640-GlutaMAX™-I (ThermoFisher Scientific 61870) containing 15% heat inactivated fetal bovine serum (ThermoFisher Scientific 10091148)). AsPC-1 cells (ATCC® CRL-1682™), containing homozygous KRAS-G12D activating mutation, were cultured in T150 flask in growth medium (RPMI medium 1640-GlutaMAX™-I (ThermoFisher Scientific 61870) containing 10% fetal bovine serum (ThermoFisher Scientific 10091148)).
Cells for the assay were harvested in growth medium after TrypLE (ThermoFisher scientific 12604021) digestion and were seeded in a 384-well collagen coated cell culture plate (Corning 356702) at a density of 10,000-15,000 cells/20 μL/well, and incubated at 37° C., 5% CO2 overnight. The compound (with 10 mM stock concentration) dose-response titrations were prepared [30 μM final ERK detection assay concentration and 1:3 dilutions, 10-point dose response] and appropriate amounts (270 nL) of test compounds were dispensed in a 384-well intermediate plate using an Echo 550 liquid handler. 30 μL/well of RPMI medium 1640-GlutaMAX™-I was added to the intermediate plate and the contents of the intermediate plate (10 μL/well) were then transferred to the 384-well collagen coated cell culture plate, which was incubated at 37° C., 5% CO2 for 2 hours. After removal of medium from the collagen coated cell culture plate, cells were lysed in lysis buffer from Alpha SureFire® Ultra™ Multiplex p-ERK and total ERK assay kit (PerkinElmer MPSU-PTERK) containing Halt™ Protease and Phosphatase inhibitor cocktail (ThermoFisher Scientific 78446) at room temperature with constant shaking at 300 rpm for 30 minutes. The cell lysates were then transferred to an OptiPlate-384 plate (PerkinElmer 6005620), and the phosphorylation of ERK (p-ERK) and total ERK levels were detected by Alpha SureFire® Ultra™ Multiplex p-EEK kit and total ERK assay kit (PerkinElmer MPSU-PTERK) following the manufacturer's protocol. Assay plates were read on a EnVision Multimode Plate Reader (PerkinElmer), and the ratio of p-ERK vs. total ERK in each well was used as the final readout. Dose response curves were analyzed using a 4-parameter logistic model to calculate IC50 values using Spotfire software.

A further assay deals with KRAS WT (Homo sapiens, UniProt P01116). The assay is described as follows: SOS-catalyzed nucleotide exchange assay, KRAS WT (Procedure A). Type of assay: biochemical. The following applies: GNE. The method in brief: (§1)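 60 min cpd preinc. w/ RAS–Bodipy-GDP–Tb-SA complex; + hSOS/GTP (3 mM final), RT. G12C 3 nM RAS/40 nM SOS; WT, G12D 1 nM/40 nM; 60 min rxn. G13D 1.25 nM, no SOS, 30 min rxn. HEPES pH 7.5, 10 mM MgCl2. Ratio 520/495, norm. to DMSO/max-inhibitor ctrls.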

The next assay deals with KRAS G12D (Homo sapiens, UniProt P01116, G12D). Nature of the assay: SOS-catalyzed nucleotide exchange assay, KRAS G12D (Procedure A). Type of assay: biochemical. The conditions noted are these: guanine nucleotide exchange (GNE). The method in brief: as §1
The target of another assay is KRAS G12V (Homo sapiens, UniProt P01116, G12V). The assay is described as follows: SOS-catalyzed nucleotide exchange assay, KRAS G12V (Procedure A). In kind it is biochemical. The conditions noted are these: GNE. In short, it runs like this:
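Biotinylated KRAS G12V was loaded with Bodipy-GDP alongside Terbium-streptavidin to form a TR-FRET complex, which was preincubated with compounds for 60 minutes in 384-well plates. Human SOS protein and unlabeled GTP were then added for 90 minutes, giving final concentrations of 1.25 nM KRAS-G12V, 160 nM SOS and 3 mM GTP. The 520/495 nm emission ratio was read on an Envision.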

The next assay has as its target NRAS (Homo sapiens, UniProt P01111). The assay is described as follows: SOS-catalyzed nucleotide exchange assay, NRAS (Procedure A). In kind it is biochemical. The conditions noted are these: GNE. The method in brief:
as §1

A further assay deals with HRAS (Homo sapiens, UniProt P01112). The assay is described as follows: SOS-catalyzed nucleotide exchange assay, HRAS (Procedure A). Type of assay: biochemical. The following applies: GNE. The method in brief: as §1
The target in the next assay is T2, AsPC-1 cells (Homo sapiens, UniProt P01116, G12D).
T2 construct: p-ERK/total ERK AlphaSureFire read-out
Nature of the assay: Cellular phospho-ERK assay, AsPC-1 cells (KRAS G12D). Type of assay: cell-based. The conditions noted are these: 2 hours, read-out: AsPC1 pERK IC50. The method in brief:
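Compound was titrated 10-point in 3-fold steps (top 30 μM) on KRAS G12D homozygous pancreatic lines PANC08.13 and AsPC-1 for 2 h at 37 °C. The p-ERK/total ERK ratio was measured by multiplex AlphaLISA SureFire and fitted with a 4-parameter logistic model to give IC50.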

The next assay concerns the target KRAS G12C (Homo sapiens, UniProt P01116, C118S/C51S/C80L/G12C). The assay is described as follows: SOS-catalyzed nucleotide exchange assay, KRAS G12C (Procedure A). In kind it is biochemical. The conditions noted are these: GNE. In short, it runs like this:
as §1

The next assay concerns the target KRAS G13D (Homo sapiens, UniProt P01116, G13D). Nature of the assay: SOS-catalyzed nucleotide exchange assay, KRAS G13D (Procedure A). Type of assay: biochemical. The conditions noted are these: GNE. The method in brief:
as §1

As usually defined, the IC50 is the concentration needed to halve the response being measured.

Each structure is given as a SMILES string. Some results are limits rather than exact numbers.

Sequence of KRAS G12D (P01116 with tags, fused parts or gaps isoform P01116-2 G12D): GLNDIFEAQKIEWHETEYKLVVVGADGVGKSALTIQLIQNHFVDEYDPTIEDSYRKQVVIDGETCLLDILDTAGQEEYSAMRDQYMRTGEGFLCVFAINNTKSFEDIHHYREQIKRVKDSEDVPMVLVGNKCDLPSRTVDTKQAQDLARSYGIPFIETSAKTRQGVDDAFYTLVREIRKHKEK
Sequence of HRAS (P01112 with tags, fused parts or gaps): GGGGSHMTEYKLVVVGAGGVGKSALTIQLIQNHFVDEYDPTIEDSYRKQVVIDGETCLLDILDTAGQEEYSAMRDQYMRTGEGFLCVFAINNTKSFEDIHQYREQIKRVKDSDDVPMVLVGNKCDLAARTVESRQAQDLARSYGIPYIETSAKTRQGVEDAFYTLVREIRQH
Sequence of KRAS WT (P01116 with tags, fused parts or gaps isoform P01116-2): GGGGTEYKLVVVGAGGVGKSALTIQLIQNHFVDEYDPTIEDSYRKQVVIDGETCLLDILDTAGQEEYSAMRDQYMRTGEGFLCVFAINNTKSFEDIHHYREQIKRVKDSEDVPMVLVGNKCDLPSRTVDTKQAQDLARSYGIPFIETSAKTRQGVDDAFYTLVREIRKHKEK
Sequence of KRAS G12V (P01116 with tags, fused parts or gaps isoform P01116-2 G12V): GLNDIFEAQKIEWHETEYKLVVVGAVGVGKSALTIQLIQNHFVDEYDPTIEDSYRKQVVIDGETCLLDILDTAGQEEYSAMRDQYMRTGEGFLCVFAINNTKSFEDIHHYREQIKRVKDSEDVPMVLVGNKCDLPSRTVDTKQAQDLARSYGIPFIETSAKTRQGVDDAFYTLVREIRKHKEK
Sequence of KRAS G13D (P01116 with tags, fused parts or gaps isoform P01116-2 G13D): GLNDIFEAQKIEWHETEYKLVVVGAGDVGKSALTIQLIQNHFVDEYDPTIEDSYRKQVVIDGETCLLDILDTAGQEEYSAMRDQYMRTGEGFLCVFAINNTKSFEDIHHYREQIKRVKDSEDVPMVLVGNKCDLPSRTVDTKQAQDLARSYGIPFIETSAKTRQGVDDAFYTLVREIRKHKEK
Sequence of KRAS G12C (P01116 with tags, fused parts or gaps isoform P01116-2 G12C/C51S/C80L/C118S): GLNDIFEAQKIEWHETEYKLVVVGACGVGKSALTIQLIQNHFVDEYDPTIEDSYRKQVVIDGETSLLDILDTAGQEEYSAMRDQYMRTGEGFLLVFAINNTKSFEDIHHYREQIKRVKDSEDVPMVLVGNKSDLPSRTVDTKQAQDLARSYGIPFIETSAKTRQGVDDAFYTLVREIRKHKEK
Sequence of NRAS (P01111 with tags, fused parts or gaps): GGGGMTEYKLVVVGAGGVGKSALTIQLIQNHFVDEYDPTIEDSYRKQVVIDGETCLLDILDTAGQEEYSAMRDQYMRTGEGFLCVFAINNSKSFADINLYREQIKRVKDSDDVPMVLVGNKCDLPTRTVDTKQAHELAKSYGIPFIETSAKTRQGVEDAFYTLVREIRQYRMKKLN
T1 sequence (P01116 1-188 isoform P01116-2 G12D): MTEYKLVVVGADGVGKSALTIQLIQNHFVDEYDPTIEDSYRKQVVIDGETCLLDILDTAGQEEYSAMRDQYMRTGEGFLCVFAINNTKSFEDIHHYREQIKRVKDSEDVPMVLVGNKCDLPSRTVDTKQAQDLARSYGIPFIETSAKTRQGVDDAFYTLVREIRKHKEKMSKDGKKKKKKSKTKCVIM
T2 sequence (P01116 1-188 isoform P01116-2 G12D): as above

For the compound `CCn1c2nc(OC[C@@]34CCCN3C[C@H](F)C4)nc(N3C[C@H]4CC[C@@H](C3)N4)c2c2ccnc(-c3c(C(F)(F)F)c(C)cc4[nH]ncc34)c21` [Ex-11, 4-((1R,5S)-3,8-diazabicyclo[3.2.1]octan-3-yl)-9-ethyl-2-(((2R,7aS)-2-fluorotetrahydro-1H-pyrrolizin-7a(5H)-yl)methoxy)-8-(6-methyl-5-(trifluoromethyl)-1H-indazol-4-yl)-9H-pyrido[4′,3′:4,5]pyrrolo[2,3-d]pyrimidine], the IC50 on PANC08.13 cells was 2.48 µM; against KRAS WT, over 11.1 µM; against KRAS G12D, 698 nM; against KRAS G12V it was over 11.1 µM.
For `Nc1nc2c(-c3nccc4c3sc3nc(OC[C@@]56CCCN5C[C@H](F)C6)nc(N5C[C@H]6CC[C@@H](C5)N6)c34)ccc(F)c2s1` [Ex-16, 4-(4-((1R,5S)-3,8-diazabicyclo[3.2.1]octan-3-yl)-2-(((2R,7aS)-2-fluorotetrahydro-1H-pyrrolizin-7a(5H)-yl)methoxy)pyrido[4′,3′:4,5]thieno [2,3-d]pyrimidin-8-yl)-7-fluorobenzo[d]thiazol-2-amine], the IC50 on PANC08.13 cells was 9.74 µM; on KRAS WT, over 11.1 µM; against KRAS G12D, 283 nM; against KRAS G12V it was over 11.1 µM.
As for `Cc1cc2[nH]nc(C#N)c2c(-c2nccc3c2sc2nc(OC[C@@]45CCCN4C[C@H](F)C5)nc(N4C[C@H]5CC[C@@H](C4)N5)c23)c1C(F)F` [Ex-18, 4-(4-((1R,5S)-3,8-diazabicyclo[3.2.1]octan-3-yl)-2-(((2R,7aS)-2-fluorotetrahydro-1H-pyrrolizin-7a(5H)-yl)methoxy)pyrido[4′,3′:4,5]thieno[2,3-d]pyrimidin-8-yl)-5-(difluoromethyl)-6-methyl-1H-indazole-3-carbonitrile], the concentration for half-maximal inhibition (IC50) on PANC08.13 cells is 0.666 µM; at KRAS WT, over 11.1 µM; at KRAS G12D it was 124 nM; against KRAS G12V, over 11.1 µM.
With `Cc1cc2[nH]ncc2c(-c2nccc3c2sc2nc(OC[C@]4(CO)CC4(F)F)nc(N4C[C@H]5CC[C@@H](C4)N5)c23)c1OC(F)F` [Ex-51, ((1R)-1-(((4-((1R,5S)-3,8-diazabicyclo[3.2.1]octan-3-yl)-8-(5-(difluoromethoxy)-6-methyl-1H-indazol-4-yl)pyrido[4′,3′:4,5]thieno[2,3-d]pyrimidin-2-yl)oxy)methyl)-2,2-difluorocyclopropyl)methanol], the half-inhibitory concentration (IC50) on PANC08.13 cells is 6.81 µM; on KRAS WT it was over 11.1 µM; at KRAS G12D, 2150 nM; against KRAS G12V it was over 11.1 µM.
As for `Cc1cc2[nH]ncc2c(-c2nccc3c2sc2nc(OC[C@]4(CO)CC4(F)F)nc(N4C[C@H]5CC[C@@H](C4)N5)c23)c1OC(F)(F)Cl` [Ex-52, ((1R)-1-(((4-((1R,5S)-3,8-diazabicyclo[3.2.1]octan-3-yl)-8-(5-(chlorodifluoromethoxy)-6-methyl-1H-indazol-4-yl)pyrido[4′,3′:4,5]thieno[2,3-d]pyrimidin-2-yl)oxy)methyl)-2,2-difluorocyclopro-pyl)methanol], the IC50 was 2.77 µM on PANC08.13 cells, over 11.1 µM against KRAS WT, 724 nM against KRAS G12D and over 11.1 µM against KRAS G12V.
On to `N#Cc1c(N)sc2c(F)ccc(-c3nccc4c3sc3nc(OC[C@]5(CO)CC5(F)F)nc(N5CC6CCC(C5)N6)c34)c12` [Ex-60, 4-(4-(3,8-diazabicyclo[3.2.1]octan-3-yl)-2-(((R)-2,2-difluoro-1-(hydroxymethyl)cyclopropyl)methoxy)pyrido[4′,3′:4,5]thieno[2,3-d]pyrimidin-8-yl)-2-amino-7-fluorobenzo[b]thiophene-3-carbonitrile], for which the IC50 was 10 µM on PANC08.13 cells, over 11.1 µM against KRAS WT, 2690 nM on KRAS G12D and over 11.1 µM on KRAS G12V.
Regarding `Cc1cc2[nH]ncc2c(-c2nccc3c2sc2nc(OC[C@@]45CCCN4C[C@H](F)C5)nc(NCC4(N(C)C)CCC4)c23)c1C(F)(F)F` [Ex-74, N-((1-(dimethylamino)cyclobutyl)methyl)-2-(((2R,7aS)-2-fluorotetrahydro-1H-pyrrolizin-7a(5H)-yl)methoxy)-8-(6-methyl-5-(trifluoromethyl)-1H-indazol-4-yl)pyrido[4′,3′:4,5]thieno[2,3-d]pyrimidin-4-amine], the IC50 against KRAS WT was over 11.1 µM; on NRAS, over 11.1 µM; against HRAS, over 11.1 µM; on AsPC-1 cells, 12100 nM; against KRAS G12C, over 11100 nM; at KRAS G12D, 1300 nM. For the same compound, the half-maximal inhibitory concentration (IC50) is over 11.1 µM at KRAS G12V and 2880 nM against KRAS G13D.
Take `Cc1cc2[nH]ncc2c(-c2nccc3c2sc2nc(OC[C@@]45CCCN4C[C@H](F)C5)nc(N4C[C@H]5CC[C@@](C)(C4)N5)c23)c1C(F)(F)F` [Ex-76, 2-(((2R,7aS)-2-fluorotetrahydro-1H-pyrrolizin-7a(5H)-yl)methoxy)-8-(6-methyl-5-(trifluoromethyl)-1H-indazol-4-yl)-4-((1S,5R)-1-methyl-3,8-diazabicyclo[3.2.1]octan-3-yl)pyrido[4′,3′:4,5]thieno[2,3-d]pyrimidine]: the IC50 against KRAS WT is 8.27 µM; against NRAS it was over 11.1 µM; on HRAS it was over 11.1 µM; at AsPC-1 cells it was 397 nM; at KRAS G12C, 1040 nM; against KRAS G12D, 26.3 nM. Besides, the IC50 against KRAS G12V was 6.35 µM; against KRAS G13D it was 1810 nM.
With `Cc1cc2[nH]ncc2c(-c2nncc3c2sc2nc(OC[C@@]45CCCN4C[C@H](F)C5)nc(N4C[C@H]5CC[C@@H](C4)N5)c23)c1C(F)(F)F` [Ex-77, 4-((1R,5S)-3,8-diazabicyclo[3.2.1]octan-3-yl)-2-(((2R,7aS)-2-fluorotetrahydro-1H-pyrrolizin-7a(5H)-yl)methoxy)-8-(6-methyl-5-(trifluoromethyl)-1H-indazol-4-yl)pyrimido[5′,4′:4,5]thieno[2,3-d]pyridazine], the half-maximal inhibitory concentration (IC50) on KRAS WT was 4.84 µM; against NRAS it was over 11.1 µM; against HRAS, over 11.1 µM; on AsPC-1 cells, 726 nM; against KRAS G12C, 334 nM; at KRAS G12D it was 17.1 nM. Also, the IC50 was 2.32 µM against KRAS G12V and 374 nM at KRAS G13D.
